Numbered stars: 1 amine (or outer) side, 2 acyl side, 3 side chain; on linkers, the order of the positions; unused ones are H or OH. Bridge positions count the residues as written; N and C are the ends. Square brackets hold non-standard residues; d marks the D form. Peptide text beside a SMILES is read from it. * marks the point of attachment. hPhe(3-Cl-4-CF3) = N[C@@H](CCc1ccc(C(F)(F)F)c(Cl)c1)C(=O)O; hPhe(3-F,4-CF3) = N[C@@H](CCc1ccc(C(F)(F)F)c(F)c1)C(=O)O; NEtPhe(4-CF3) = CCN[C@@H](Cc1ccc(C(F)(F)F)cc1)C(=O)O; hPhe(4-CF3) = N[C@@H](CCc1ccc(C(F)(F)F)cc1)C(=O)O; NMePhe(4-Cl) = CN[C@@H](Cc1ccc(Cl)cc1)C(=O)O; NMePhe(4-Me) = CN[C@@H](Cc1ccc(C)cc1)C(=O)O; NMePhe(3-F) = CN[C@@H](Cc1cccc(F)c1)C(=O)O; NMedβ3hAla = C[C@H](CC(=O)[*:2])N(C)[*:1]; hPhe(4-F) = N[C@@H](CCc1ccc(F)cc1)C(=O)O; NMeGly(cPent) = CN[C@H](C(=O)O)C1CCCC1; NMeCha = CN[C@@H](CC1CCCCC1)C(=O)O; Gly(N-(CH2)2OEt) = CCOCCNCC(=O)O; NMeChg = CN[C@H](C(=O)O)C1CCCCC1; NMeI = CC[C@H](C)[C@H](NC)C(=O)O; d(β3hL) = CC(C)C[C@@H](N)CC(=O)O; NMeβAla = CN(CCC(=O)[*:2])[*:1]; NMeD = CN[C@@H](CC(=O)O)C(=O)O; NMeL = CN[C@@H](CC(C)C)C(=O)O; NMeV = CN[C@H](C(=O)O)C(C)C; d(β3hA) = C[C@@H](N)CC(=O)O; NMeS = CN[C@@H](CO)C(=O)O; Morpholide = C1CN(*)CCO1; NAllylGly = C=CCNCC(=O)O; NMeA = CN[C@@H](C)C(=O)O; NMeAib = CNC(C)(C)C(=O)O; Piperidide = C1CCN(*)CC1; Pyrrolidide = C1CCN(*)C1; dNMeA = CN[C@H](C)C(=O)O; Ac5c = NC1(C(=O)O)CCCC1; Aze = O=C(O)[C@@H]1CCN1; Cyclobutyl = C1CC(*)C1; Aib = CC(C)(N)C(=O)O; Sar = CNCC(=O)O; Propyl = CCC*
The molecules below were run against protein-protein interaction between Kras and SOS1 (biotin-tagged human Kras loaded with GDP, His-tagged human SOS1) (Homo sapiens (Human), UniProt P01116, G12D) (assay: Protein-protein interaction inhibition between Kras and SOS1 (KrasG12D-SOS PPI) using AlphaScreen). Details: AlphaScreen; biotin-tagged human Kras loaded with GDP, His-tagged human SOS1; read-out: KRAS G12D-SOS PPI IC50.
Assay type: biochemical

SMILES	IC50
CC[C@H](C)[C@@H]1NC(=O)[C@H](C)N(C)C(=O)C[C@@H](C)NC(=O)[C@H](C2CCCC2)N(C)C(=O)C2(CCCC2)NC(=O)[C@@H]2CCCN2C(=O)[C@H](CCc2ccc(C(F)(F)F)c(Cl)c2)NC(=O)[C@@H](C)N(C)C(=O)[C@H](Cc2cccc(F)c2)N(C)C(=O)[C@@H]2CCN2C(=O)[C@H](C)N(C)C1=O [Compound 795] (cyclo([Ac5c][NMeGly(cPent)][d(β3hA)][NMeA]I[NMeA][Aze][NMePhe(3-F)][dNMeA][hPhe(3-Cl-4-CF3)]P))	72 nM
CC[C@H](C)[C@@H]1NC(=O)[C@H](CC(C)C)N(C)C(=O)C[C@@H](CC(C)C)NC(=O)[C@H]([C@@H](C)CC)N(C)C(=O)C2(CCCC2)NC(=O)[C@@H]2CCCN2C(=O)[C@H](CCc2ccc(C(F)(F)F)c(Cl)c2)NC(=O)CN(C)C(=O)[C@H](CC2CCCCC2)N(C)C(=O)[C@@H]2CCN2C(=O)[C@H](C)N(C)C1=O [Compound 798] (cyclo([Ac5c][NMeI][d(β3hL)][NMeL]I[NMeA][Aze][NMeCha][Sar][hPhe(3-Cl-4-CF3)]P))	59 nM
CC[C@H](C)[C@@H]1NC(=O)[C@H](CC(C)C)N(C)C(=O)C[C@@H](C(=O)N2CCCCC2)N(C)C(=O)[C@H]([C@@H](C)CC)N(C)C(=O)C2(CCCC2)NC(=O)[C@@H]2CCCN2C(=O)[C@H](CCc2ccc(C(F)(F)F)c(Cl)c2)NC(=O)CN(C)C(=O)[C@H](C2CCCC2)N(C)C(=O)[C@@H]2CCN2C(=O)[C@H](C)N(C)C1=O [Compound 807] ([NMeL]I[NMeA][Aze][NMeGly(cPent)][Sar][hPhe(3-Cl-4-CF3)]P[Ac5c][NMeI][NMeD]-Piperidide; lactam N-11)	0.74 nM
CCCOC[C@H]1C(=O)N(C)CC(=O)N[C@@H](CCc2ccc(C(F)(F)F)c(F)c2)C(=O)N2CCC[C@H]2C(=O)NC2(CCCC2)C(=O)N(C)[C@@H]([C@@H](C)CC)C(=O)N(C)[C@H](C(=O)N2CCOCC2)CC(=O)N(C)[C@@H](CC(C)C)C(=O)N[C@@H]([C@@H](C)CC)C(=O)N(C)[C@@H](C)C(=O)N2CC[C@H]2C(=O)N1C [Compound 827] ([NMeL]I[NMeA][Aze][NMeS](Propyl)[Sar][hPhe(3-F,4-CF3)]P[Ac5c][NMeI][NMeD]-Morpholide; lactam N-11)	2.8 nM
CC[C@H](C)[C@@H]1NC(=O)[C@H](CC(C)C)N(C)C(=O)C[C@@H](C(=O)N(C)C)N(C)C(=O)[C@H]([C@@H](C)CC)N(C)C(=O)CNC(=O)[C@@H]2CCCN2C(=O)[C@H](CCc2ccc(C(F)(F)F)c(Cl)c2)NC(=O)CN(C)C(=O)[C@H](Cc2ccc(C)cc2)N(C)C(=O)[C@@H]2CCN2C(=O)[C@H](C)N(C)C1=O [Compound 828] ([NMeL]I[NMeA][Aze][NMePhe(4-Me)][Sar][hPhe(3-Cl-4-CF3)]PG[NMeI][NMeD]-NMe2; lactam N-11)	40 nM
CC[C@H](C)[C@@H]1NC(=O)[C@H](CC(C)C)N(C)C(=O)CCN(C)C(=O)[C@H](CC(C)C)NC(=O)C(C)(C)N(C)C(=O)[C@H](CC(C)C)NC(=O)[C@H](CCc2ccc(C(F)(F)F)c(F)c2)NC(=O)CN(C)C(=O)[C@H](CC2CCCCC2)N(C)C(=O)CN(C)C(=O)CN(C)C1=O [Compound 832] (cyclo(I[Sar][Sar][NMeCha][Sar][hPhe(3-F,4-CF3)]L[NMeAib]L[NMeβAla][NMeL]))	120 nM
CC[C@H](C)[C@@H]1NC(=O)[C@H](CC(C)C)N(C)C(=O)C[C@@H](C)NC(=O)[C@H](CC(C)C)N(C)C(=O)C(C)(C)NC(=O)[C@H](CC(C)C)N(C)C(=O)[C@H](CCc2ccc(C(F)(F)F)cc2)NC(=O)CN(C)C(=O)[C@H](CC2CCCCC2)N(C)C(=O)CN(C)C(=O)CN(C)C1=O [Compound 839] (cyclo([Aib][NMeL][d(β3hA)][NMeL]I[Sar][Sar][NMeCha][Sar][hPhe(4-CF3)][NMeL]))	220 nM
CC[C@H](C)[C@@H]1NC(=O)[C@H](CC(C)C)N(C)C(=O)C[C@@H](C)NC(=O)[C@H](CC(C)C)N(C)C(=O)C2(CCCC2)NC(=O)[C@H](CC(C)C)N(C)C(=O)[C@H](CCc2ccc(C(F)(F)F)cc2)NC(=O)CN(C)C(=O)[C@H](Cc2ccc(Cl)cc2)N(C)C(=O)CN(C)C(=O)CN(C)C1=O [Compound 843] (cyclo([Ac5c][NMeL][d(β3hA)][NMeL]I[Sar][Sar][NMePhe(4-Cl)][Sar][hPhe(4-CF3)][NMeL]))	49 nM
CCCOC[C@H]1C(=O)N2CC[C@H]2C(=O)N(C)[C@@H](CC2CCCCC2)C(=O)N(C)CC(=O)N[C@@H](CCc2ccc(C(F)(F)F)c(Cl)c2)C(=O)N2CCC[C@H]2C(=O)NC2(CCCC2)C(=O)N(C)[C@@H](C(C)C)C(=O)N[C@H](C)CC(=O)N(C)[C@@H](CC(C)C)C(=O)N[C@@H]([C@@H](C)CC)C(=O)N1C [Compound 852] (cyclo([Ac5c][NMeV][d(β3hA)][NMeL]I[NMeS](Propyl)[Aze][NMeCha][Sar][hPhe(3-Cl-4-CF3)]P))	190 nM
CC[C@H](C)[C@@H]1NC(=O)[C@H](CC(C)C)N(C)C(=O)C[C@@H](C)N(C)C(=O)[C@H]([C@@H](C)CC)N(C)C(=O)C2(CCCC2)NC(=O)[C@@H]2CCCN2C(=O)[C@H](CCc2ccc(C(F)(F)F)c(F)c2)NC(=O)CN(C)C(=O)[C@H](CC2CCCCC2)N(C)C(=O)[C@@H]2CCN2C(=O)[C@H](C)N(C)C1=O [Compound 859] (cyclo([Ac5c][NMeI][NMedβ3hAla][NMeL]I[NMeA][Aze][NMeCha][Sar][hPhe(3-F,4-CF3)]P))	64 nM
CC[C@H](C)[C@@H]1NC(=O)[C@H](C)N(C)C(=O)C[C@@H](C(=O)N2CCCCC2)N(C)C(=O)[C@H](C(C)C)N(C)C(=O)C2(CCCC2)NC(=O)[C@@H]2CCCN2C(=O)[C@H](CCc2ccc(F)cc2)NC(=O)CN(C)C(=O)[C@H](CC2CCCCC2)N(C)C(=O)[C@@H]2CCN2C(=O)[C@H](C)N(C)C1=O [Compound 860] ([NMeA]I[NMeA][Aze][NMeCha][Sar][hPhe(4-F)]P[Ac5c][NMeV][NMeD]-Piperidide; lactam N-11)	210 nM
CC[C@H](C)[C@@H]1NC(=O)[C@H](CC(C)C)N(C)C(=O)C[C@@H](C(=O)N2CCCC2)N(C)C(=O)[C@H]([C@@H](C)CC)N(C)C(=O)C2(CCCC2)NC(=O)[C@@H]2CCCN2C(=O)[C@H](CCc2ccc(C(F)(F)F)c(F)c2)NC(=O)CN(C)C(=O)[C@H](CC2CCCCC2)N(C)C(=O)[C@@H]2CCN2C(=O)[C@H](C)N(C)C1=O [Compound 868] ([NMeL]I[NMeA][Aze][NMeCha][Sar][hPhe(3-F,4-CF3)]P[Ac5c][NMeI][NMeD]-Pyrrolidide; lactam N-11)	2.9 nM
CCOCCN1CC(=O)NC2(CCCC2)C(=O)N(C)[C@@H](C2CCCCC2)C(=O)N(C)[C@H](C(=O)N2CCCCC2)CC(=O)N(C)[C@@H](CC(C)C)C(=O)N[C@@H]([C@@H](C)CC)C(=O)N(C)CC(=O)N(C)CC(=O)N(C)[C@@H](CC2CCCCC2)C(=O)N(C)CC(=O)N[C@@H](CCc2ccc(C(F)(F)F)c(Cl)c2)C1=O [Compound 872, (11S,17S,26S,29S,33S,36S)-11-[2-[3-chloro-4-(trifluoromethyl)phenyl]ethyl]-36-cyclohexyl-17-(cyclohexylmethyl)-9-(2-ethoxyethyl)-29-isobutyl-15,18,21,24,30,34,37-heptamethyl-26-[(1S)-1-methylpropyl]-33-(piperidine-1-carbonyl)-6,9,12,15,18,21,24,27,30,34,37-undecazaspiro[4.33]octatriacontane-7,10,13,16,19,22,25,28,31,35,38-undecone] ([NMeL]I[Sar][Sar][NMeCha][Sar][hPhe(3-Cl-4-CF3)][Gly(N-(CH2)2OEt)][Ac5c][NMeChg][NMeD]-Piperidide; lactam N-11)	1.9 nM
CC[C@H](C)[C@@H]1NC(=O)[C@H](C2CCCCC2)N(C)C(=O)C[C@@H](C)NC(=O)[C@H](C(C)C)N(C)C(=O)C2(CCCC2)NC(=O)[C@@H]2CCCN2C(=O)[C@H](CCc2ccc(C(F)(F)F)c(Cl)c2)NC(=O)CN(C)C(=O)[C@H](CC2CCCCC2)N(C)C(=O)[C@@H]2CCN2C(=O)[C@H](C)N(C)C1=O [Compound 873] (cyclo([Ac5c][NMeV][d(β3hA)][NMeChg]I[NMeA][Aze][NMeCha][Sar][hPhe(3-Cl-4-CF3)]P))	51 nM
CC[C@H](C)[C@@H]1NC(=O)[C@H](CC(C)C)N(C)C(=O)C[C@@H](C(=O)N2CCCCC2)N(C)C(=O)[C@H]([C@@H](C)CC)N(C)C(=O)C2(CCCC2)NC(=O)[C@@H]2CCCN2C(=O)[C@H](CCc2ccc(C(F)(F)F)c(Cl)c2)NC(=O)CN(C)C(=O)[C@H](COC2CCC2)N(C)C(=O)[C@@H]2CCN2C(=O)[C@H](C)N(C)C1=O [Compound 885] ([NMeL]I[NMeA][Aze][NMeS](Cyclobutyl)[Sar][hPhe(3-Cl-4-CF3)]P[Ac5c][NMeI][NMeD]-Piperidide; lactam N-11)	1.9 nM
CC[C@H](C)[C@@H]1NC(=O)[C@H](CC(C)C)N(C)C(=O)C[C@@H](C)N(C)C(=O)[C@H]([C@@H](C)CC)N(C)C(=O)C2(CCCC2)NC(=O)[C@@H]2CCCN2C(=O)[C@H](CCc2ccc(C(F)(F)F)c(Cl)c2)NC(=O)CN(C)C(=O)[C@H](Cc2ccc(C(F)(F)F)cc2)N(CC)C(=O)[C@@H]2CCN2C(=O)[C@H](C)N(C)C1=O [Compound 898] (cyclo([Ac5c][NMeI][NMedβ3hAla][NMeL]I[NMeA][Aze][NEtPhe(4-CF3)][Sar][hPhe(3-Cl-4-CF3)]P))	12 nM
C=CCN1CC(=O)NC2(CCCC2)C(=O)N(C)[C@@H](C2CCCCC2)C(=O)N(C)[C@H](C(=O)N2CCCCC2)CC(=O)N(C)[C@@H](CC(C)C)C(=O)N[C@@H]([C@@H](C)CC)C(=O)N(C)CC(=O)N(C)CC(=O)N(C)[C@@H](CC2CCCCC2)C(=O)N(C)CC(=O)N[C@@H](CCc2ccc(C(F)(F)F)c(Cl)c2)C1=O [Compound 899] ([NMeL]I[Sar][Sar][NMeCha][Sar][hPhe(3-Cl-4-CF3)][NAllylGly][Ac5c][NMeChg][NMeD]-Piperidide; lactam N-11 (inferred); C-terminus assumed)	1.9 nM

Source: US20240148821A1, “PHARMACEUTICAL USE OF CYCLIC PEPTIDE COMPOUND” (CHUGAI SEIYAKU KABUSHIKI KAISHA, priority 2021, published 2024)
